Experimental data from ChEMBL document CHEMBL1133008, “AMP deaminase inhibitors. 2. Initial discovery of a non-nucleotide transition-state inhibitor series” (J Med Chem, 2000).

Target: T1, Adenosine deaminase (Bos taurus, UniProt P56658)
T1 sequence (P56658 whole entry): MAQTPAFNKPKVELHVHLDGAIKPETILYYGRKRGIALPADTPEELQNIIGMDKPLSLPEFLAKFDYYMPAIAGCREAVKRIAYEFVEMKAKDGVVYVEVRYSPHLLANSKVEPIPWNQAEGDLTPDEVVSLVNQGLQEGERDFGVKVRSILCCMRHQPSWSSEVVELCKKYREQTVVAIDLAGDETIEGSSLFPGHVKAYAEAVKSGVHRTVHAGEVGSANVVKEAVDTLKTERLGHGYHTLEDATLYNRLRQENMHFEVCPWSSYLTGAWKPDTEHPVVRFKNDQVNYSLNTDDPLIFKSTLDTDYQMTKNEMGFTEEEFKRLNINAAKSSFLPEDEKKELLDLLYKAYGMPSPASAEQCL
Test: Evaluated for the inhibition of calf intestinal Adenosine deaminase (ADA)

Row | Structure (SMILES) | Ki [µM]
1 | O=C(O)C(CCCCn1cnc2c1N=CNCC2O)Cc1ccccc1Br (centres undefined) | > 7.5
2 | O=C(O)C(CCCCn1cnc2c1N=CNCC2O)Cc1cccc(Cl)c1 (centres undefined) | > 7.5
3 | N#CCCCCCCn1cnc2c1NC=NCC2O (centres undefined) | 1
4 | N#CCCCCn1cnc2c1N=CNCC2O (centres undefined) | 14
5 | CCCn1cnc2c1NC=NCC2O (centres undefined) | > 20
6 | O=C(O)CCCCCCCn1cnc2c1NC=NCC2O (centres undefined) | > 7.5
7 | OCCCCCn1cnc2c1NC=NCC2O (centres undefined) | 4.7
8 | COC(=O)CCCCCCCn1cnc2c1N=CNCC2O (centres undefined) | 0.95
9 | COP(=O)(O)CCCCCCn1cnc2c1NC=NCC2O (centres undefined) | > 500
10 | O=C(O)C(CCCCn1cnc2c1N=CNCC2O)c1cccc(Br)c1 (centres undefined) | > 7.5
11 | O=C(O)C(CCCCn1cnc2c1NC=NCC2O)Cc1ccc(Br)cc1 (centres undefined) | > 7.5
12 | O=C(O)C(CCCCn1cnc2c1NC=NCC2O)(c1ccccc1)c1ccccc1 (centres undefined) | > 7.5
13 | CC(C)(CCCCn1cnc2c1NC=NCC2O)C(=O)O (centres undefined) | > 7.5
14 | CCOC(=O)CCCCCn1cnc2c1NC=NCC2O (centres undefined) | 3
15 | OC1CN=CNc2c1ncn2CCCCCc1nnn[nH]1 (centres undefined) | > 7.5
16 | O=C(O)C(CCCCn1cnc2c1N=CNCC2O)c1ccccc1 (centres undefined) | > 7.5
17 | OCCCCn1cnc2c1N=CNCC2O (centres undefined) | 6.3
18 | CCCCn1cnc2c1NC=NCC2O (centres undefined) | 17
19 | OCCCCCCn1cnc2c1N=CNCC2O (centres undefined) | 3.6
20 | CCOC(=O)C(CCCCn1cnc2c1NC=NCC2O)c1cccc(Br)c1 (centres undefined) | > 7.5
21 | OCCCn1cnc2c1N=CNCC2O (centres undefined) | > 7.5
22 | O=C(O)C1(CCCCn2cnc3c2N=CNCC3O)Cc2ccccc2C1 (centres undefined) | > 7.5

Row | Structure (SMILES) | Ki [µM]
23 | O=C(O)CCCCn1cnc2c1NC=NCC2O (centres undefined) | > 7.5
24 | O=C(O)C(CCCCn1cnc2c1NC=NCC2O)Cc1cccc(Br)c1 (centres undefined) | > 7.5
25 | CCCCCCCCn1cnc2c1N=CNCC2O (centres undefined) | 0.45
26 | O=C(O)C(CCCCn1cnc2c1NC=NCC2O)Cc1ccccc1 (centres undefined) | > 1000
27 | CCOC(=O)C(CCCCn1cnc2c1NC=NCC2O)c1ccccc1 (centres undefined) | > 7.5
28 | CC(CCCCn1cnc2c1N=CNCC2O)(Cc1cccc(Br)c1)C(=O)O (stereo in doubt; 7v) | > 7.5
29 | O=C(O)C(CCCCn1cnc2c1NC=NCC2O)Cc1ccc(Cl)cc1 (centres undefined) | > 7.5
30 | COC(=O)CCCCn1cnc2c1N=CNCC2O (centres undefined) | 3.5
31 | O=C(O)CCCCCn1cnc2c1N=CNCC2O (centres undefined) | 280
32 | N#CCCCn1cnc2c1N=CNCC2O (centres undefined) | > 7.5
33 | CCOC(=O)C(C)(CCCCn1cnc2c1NC=NCC2O)Cc1cccc(Br)c1 (centres undefined) | > 7.5
34 | CC(CCCCn1cnc2c1N=CNCC2O)(Cc1cccc(Br)c1)C(=O)O (stereo in doubt; 7w) | > 7.5
35 | CCOC(=O)C(CCCCn1cnc2c1NC=NCC2O)Cc1cccc(Br)c1 (centres undefined) | > 7.5
36 | OCCn1cnc2c1NC=NCC2O (centres undefined) | > 7.5
37 | CCn1cnc2c1NC=NCC2O (centres undefined) | 28
38 | O=P(O)(O)CCCCCCn1cnc2c1N=CNCC2O (centres undefined) | > 7.5
39 | O=C(O)CCCCCCn1cnc2c1N=CNCC2O (centres undefined) | 250
40 | OC1CN=CNc2c1ncn2Cc1ccccc1 (centres undefined) | 6
41 | O=P(O)(O)CCCCCn1cnc2c1NC=NCC2O (centres undefined) | > 500
42 | CC(C)CC(CCCCn1cnc2c1NC=NCC2O)(CC(C)C)C(=O)O (centres undefined) | 120
43 | NC(=O)CCCCCn1cnc2c1NC=NCC2O (centres undefined) | 5.9
44 | O=C(O)CCCOCn1cnc2c1NC=NCC2O (centres undefined) | > 500
